Tested on: wt HLA-A2 or ds HLA-A2 antigen-presenting polypeptide (HLA*02:01)
Experiment: Binding kinetics of TAMRA-labeled HPV E7 antigenic polypeptides onto engineered enucleated erythroid cells (flow cytometry)
Set-up: species or system human
Settings: 10 ng/mL, about 90 minutes, 4° C., RT and 37° C.
Method: To examine the antigenic polypeptide loading kinetics of loadable antigen-presenting polypeptides, the following experiment was performed.

YMLDLQPKT [HPV E7-E18K]
Loading rate of fluorescent peptide compared with HPV E7-GGK (onto cells including ds HLA-A2): more rapidly | Loading rate of fluorescent peptide compared with HPV E7-GGK (onto cells including wt HLA-A2): more rapidly

Source: patent publication US20200291355A1, “ENGINEERED ERYTHROID CELLS INCLUDING LOADABLE ANTIGEN-PRESENTING POLYPEPTIDES AND METHODS OF USE” (Rubius Therapeutics, Inc., priority 2019, published 2020)
